The numbers were not newly measured in patent US7135436B2, “Solid algicide, preparation and usage in recirculating water” (J.F. Daley International, Ltd., priority 2003, dated 2006), which cites them from elsewhere.

Structures are written as SMILES.

For this data set the following is noted: at 20° C.; 'believed to be'.

`CCNc1nc(Cl)nc(NC(C)(C)C)n1` [terbuthylazine, 2-(tert-butylamino)-4-chloro-6-(ethylamino)-s-triazine]: the “solubility of terbuthylazine in water” value was “about 5 ppm”.
